Data from patent US6670363B1, “Azole compounds as therapeutic agents for fungal infections” (Ranbaxy Laboratories Limited, priority 2000, dated 2003).
In brackets after ≈: the same amount, converted by molar mass.

Key:
Type in all cases: cell-based
[1] = tested on: Cryptococcus neoformans; test: In vitro MIC, NCCLS M27A, Cryptococcus neoformans; parameters: MIC, C. neoformans I: unit not given beside the values; MIC, C. neoformans M 106: unit not given here; conditions: for MIC, C. neoformans I: C. neoformans strain I; for MIC, C. neoformans M 106: C. neoformans strain M 106
[2] = tested on: Candida; test: In vitro MIC, NCCLS M27A, Candida species; parameters: MIC, Candida albicans 1.549 / MIC, Candida albicans Y-01-19 / MIC, C. krusei 766-1 / MIC, C. krusei Q. C / MIC, Candida tropicalis ATCC / MIC, C. glabrata 90030: unit not given beside the values; MIC, Candida albicans A 26 / MIC, C. parapsilosis Q. C.: unit not given here; conditions: for MIC, C. glabrata 90030: C. glabrata strain 90030; for MIC, C. krusei 766-1: C. krusei strain 766-1; for MIC, C. krusei Q. C: C. krusei strain Q. C; for MIC, C. parapsilosis Q. C.: C. parapsilosis strain Q. C.; for MIC, Candida albicans 1.549: Candida albicans strain 1.549; for MIC, Candida albicans A 26: Candida albicans strain A 26; for MIC, Candida albicans Y-01-19: Candida albicans strain Y-01-19
[3] = tested on: A. fumigatus s 1008; test: In vitro MIC, NCCLS M38P broth method (RPMI 1640/MOPS pH7), Aspergillus fumigatus; conditions: A. fumigatus strain 1008
[4] = tested on: Histoplasma capsulatum

SMILES | MIC, C. neoformans I [1] | MIC, C. neoformans M 106 [1] | MIC, C. glabrata 90030 [2] | MIC, C. krusei 766-1 [2] | MIC, C. krusei Q. C [2] | MIC, C. parapsilosis Q. C. [2] | MIC, Candida albicans 1.549 [2] | MIC, Candida albicans A 26 [2] | MIC, Candida albicans Y-01-19 [2] | MIC, Candida tropicalis ATCC [2] | MIC, A. fumigatus 1008 [3] | MIC, H. capsulatum [4] [µg/mL]
C[C@@H](n1ncn(-c2ccc(N3CCN(c4ccc(F)cc4)CC3)cc2)c1=O)[C@](O)(Cn1cncn1)c1ccc(F)cc1F [Compound 11, 2-{[1R2R/1S2S]-2-(2,4-Difluorophenyl)-2-hydroxy-1-methyl-3-(1H-1,2,4-triazol-1-yl)propyl}-4-{4-[4-(4-fluorophenyl)-1-piperazinyl]phenyl}-3-(2H,4H)-1,2,4-triazolone] | <0.03 | <0.03 | 0.25 | 0.25 | 0.12 | <0.03 | 0.06 | <0.03 | 0.12 | <0.03 | 0.25 | < 0.03
C[C@@H](n1ncn(-c2ccc(N3CCN(c4ccc(F)cc4)CC3)cc2)c1=O)[C@@](O)(Cn1cncn1)c1ccc(F)cc1F [Compound 12, 2-{[1R2S/1S2R]-2-(2,4-Difluorophenyl)-2-hydroxy-1-methyl-3-(1H-1,2,4-triazol-1-yl)propyl}-4-{4-[4-(4-fluorophenyl)-1-piperazinyl]phenyl}-3-(2H,4H)-1,2,4-triazolone] | 0.12 | 0.25 | 4.00 | >16 | 8.00 | 0.06 | 4.00 | <0.03 | 8.00 | <0.03 | >16 | < 0.03
COc1ccc(N2CCN(c3ccc(-n4cnn([C@H](C)[C@](O)(Cn5cncn5)c5ccc(F)cc5F)c4=O)cc3)CC2)cc1 [Compound 13, 2-{[1R2R/1S2S]-2-(2,4-Difluorophenyl)-2-hydroxy-1-methyl-3-(1H-1,2,4-triazol-1-yl)propyl}-4-{4-[4-(4-methoxyphenyl)-1-piperazinyl]phenyl}-3-(2H,4H)-1,2,4-triazolone] | <0.03 | <0.03 | 0.50 | 0.50 | 0.12 | <0.03 | 0.12 | <0.03 | 0.25 | <0.03 | 0.25 | 0.06 (≈ 0.0996 µM)
COc1ccc(N2CCN(c3ccc(-n4cnn([C@H](C)[C@@](O)(Cn5cncn5)c5ccc(F)cc5F)c4=O)cc3)CC2)cc1 [Compound 14, 2-{[1R2S/1S2R]-2-(2,4-Difluorophenyl)-2-hydroxy-1-methyl-3-(1H-1,2,4-triazol-1-yl)propyl}-4-{4-[4-(4-methoxyphenyl)-1-piperazinyl]phenyl}-3-(2H,4H)-1,2,4-triazolone] | 0.50 | <0.03 | 2.00 | >16 | 16.0 | 0.06 | 2.00 | <0.03 | 2.00 | <0.03 | >16 | 0.12 (≈ 0.199 µM)
C[C@@H](n1ncn(-c2ccc(N3CCN(c4ccc(F)c(Cl)c4)CC3)cc2)c1=O)[C@](O)(Cn1cncn1)c1ccc(F)cc1F [Compound 15, 2-{[1R2R/1S2S]-2-(2,4-Difluorophenyl)-2-hydroxy-1-methyl-3-(1H-1,2,4-triazol-1-yl)propyl}-4-{4-[4-(3-chloro-4-fluorophenyl)-1-piperazinyl]phenyl}-3-(2H,4H)-1,2,4-triazolone] | <0.03 | <0.03 | 0.50 | 0.50 | 0.25 | <0.03 | 1.00 | <0.03 | 0.25 | <0.03 | 0.50 | 0.12 (≈ 0.192 µM)
C[C@@H](n1ncn(-c2ccc(N3CCN(c4ccc(F)c(Cl)c4)CC3)cc2)c1=O)[C@@](O)(Cn1cncn1)c1ccc(F)cc1F [Compound 16, 2-{[1R2S/1S2R]-2-(2,4-Difluorophenyl)-2-hydroxy-1-methyl-3-(1H-1,2,4-triazol-1-yl)propyl}-4-{4-[4-(3-chloro-4-fluorophenyl)-1-piperazinyl]phenyl}-3-(2H,4H)-1,2,4-triazolone] | 0.12 | 0.12 | 0.50 | >16 | 1.00 | 0.06 | 4.00 | <0.03 | 1.00 | <0.03 | >16 | 0.5 (≈ 0.8 µM)
Cc1ccc(N2CCN(c3ccc(-n4cnn([C@H](C)[C@](O)(Cn5cncn5)c5ccc(F)cc5F)c4=O)cc3)CC2)cc1Cl [Compound 17, 2-{[1R2R/1S2S]-2-(2,4-Difluorophenyl)-2-hydroxy-1-methyl-3-(1H-1,2,4-triazol-1-yl)propyl}-4-{4-[4-(3-chloro-4-methylphenyl)-1-piperazinyl]phenyl}-3-(2H,4H)-1,2,4-triazolone] | <0.03 | <0.03 | 0.50 | 0.50 | 0.50 | <0.03 | 0.25 | <0.03 | 0.25 | <0.03 | 0.25 | 0.25 (≈ 0.403 µM)
Cc1ccc(N2CCN(c3ccc(-n4cnn([C@H](C)[C@@](O)(Cn5cncn5)c5ccc(F)cc5F)c4=O)cc3)CC2)cc1Cl [Compound 18, 2-{[1R2S/1S2R]-2-(2,4-Difluorophenyl)-2-hydroxy-1-methyl-3-(1H-1,2,4-triazol-1-yl)propyl}-4-{4-[4-(3-chloro-4-methylphenyl)-1-piperazinyl]phenyl}-3-(2H,4H)-1,2,4-triazolone] | 0.12 | 0.25 | 1.00 | >16 | 2.00 | 0.25 | 2.00 | <0.03 | 1.00 | <0.03 | >16 | 0.25 (≈ 0.403 µM)
Cc1ccc(N2CCN(c3ccc(-n4cnn([C@H](C)[C@](O)(Cn5cncn5)c5ccc(F)cc5F)c4=O)cc3)CC2)c(C)c1 [Compound 19, 2-{[1R2R/1S2S]-2-(2,4-Difluorophenyl)-2-hydroxy-1-methyl-3-(1H-1,2,4-triazol-1-yl)propyl}-4-{4-[4-(2,4-dimethylphenyl)-1-piperazinyl]phenyl}-3-(2H,4H)-1,2,4-triazolone] | <0.03 | <0.03 | >16 | >16 | 0.50 | 0.06 | 1.00 | <0.03 | 1.00 | <0.03 | >16 | 0.5 (≈ 0.832 µM)
Cc1ccc(N2CCN(c3ccc(-n4cnn([C@H](C)[C@@](O)(Cn5cncn5)c5ccc(F)cc5F)c4=O)cc3)CC2)c(C)c1 [Compound 20, 2-{[1R2S/1S2R]-2-(2,4-Difluorophenyl)-2-hydroxy-1-methyl-3-(1H-1,2,4-triazol-1-yl)propyl}-4-{4-[4-(2,4-dimethylphenyl)-1-piperazinyl]phenyl}-3-(2H,4H)-1,2,4-triazolone] | 0.25 | 0.25 | 2.00 | >16 | 2.00 | 0.12 | 8.00 | <0.03 | 2.00 | <0.03 | >16 | 0.5 (≈ 0.832 µM)
Cc1ccc(Cl)cc1N1CCN(c2ccc(-n3cnn([C@H](C)[C@](O)(Cn4cncn4)c4ccc(F)cc4F)c3=O)cc2)CC1 [Compound 21, 2-{[1R2R/1S2S]-2-(2,4-Difluorophenyl)-2-hydroxy-1-methyl-3-(1H-1,2,4-triazol-1-yl)propyl}-4-{4-[4-(5-chloro-2-methylphenyl)-1-piperazinyl]phenyl}-3-(2H,4H)-1,2,4-triazolone] | <0.03 | <0.03 | 0.50 | 0.50 | 0.25 | 0.06 | 0.25 | <0.03 | 0.25 | <0.03 | 1.00 | 0.12 (≈ 0.193 µM)
